For twelve compounds, TGI and GI50 results are on record in PubChem BioAssay (NCI).

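Interpolation was linear, between the two tested concentrations surrounding the appropriate level; five concentrations were tested over 48 hours in 96-well plates. Abbreviation: GI50, concentration required for 50% inhibition of growth. At the TGI there is no net growth.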

Test systems include UACC-257 melanoma; SNB-75 CNS; DU-145 prostate; KM12 colon; MALME-3M melanoma; OVCAR-4 ovarian; SF-295 CNS; M14 melanoma; NCI-H23 lung; HCC-2998 colon.
Assay in all cases: growth of human tumour cells (NCI), 48 h

With `Oc1c(Br)cc(Br)cc1CN(Cc1cc(Br)cc(Br)c1O)C1CCCCC1`, the TGI with UACC-257 melanoma was 45.1 µM; in the experiment with SNB-75 CNS, 71.5 µM; with DU-145 prostate, over 100 µM; in the experiment on KM12 colon, over 100 µM; with MALME-3M melanoma, 59.8 µM; with OVCAR-4 ovarian, over 100 µM. In addition, the results for the TGI in the experiment with SF-295 CNS, with M14 melanoma and in the experiment with NCI-H23 lung were 72.7 µM, over 100 µM and 70.4 µM, respectively.
On to `CCC1CCc2nc3sc(C(=O)Nc4ccccc4F)c(N)c3cc2C1` (configuration not stated), for which the GI50 in the experiment on UACC-257 melanoma was 0.934 µM; in the experiment with SNB-75 CNS, 2.16 µM; in the experiment with DU-145 prostate, 2.82 µM; in the experiment with KM12 colon, 0.643 µM; in the experiment with MALME-3M melanoma it was 3.55 µM; in the experiment with OVCAR-4 ovarian, over 100 µM. Further, the GI50 with SF-295 CNS is 0.669 µM; with NCI-H23 lung, over 100 µM; with HCC-2998 colon it was over 100 µM. Further, the TGI in the experiment with UACC-257 melanoma, in the experiment on SNB-75 CNS, in the experiment on DU-145 prostate, with KM12 colon, in the experiment with MALME-3M melanoma and in the experiment on OVCAR-4 ovarian was over 100 µM throughout. The TGI with SF-295 CNS, with NCI-H23 lung and in the experiment on HCC-2998 colon was over 100 µM in each case.
For `O=C(O)C(=O)Cc1ccc2c(c1)OCO2`, the TGI in the experiment with UACC-257 melanoma, in the experiment on SNB-75 CNS, with DU-145 prostate, with KM12 colon, in the experiment on OVCAR-4 ovarian and in the experiment on SF-295 CNS was over 100 µM each time. The TGI in the experiment with M14 melanoma and in the experiment with NCI-H23 lung was over 100 µM each time.
In the case of `Cc1ccc(-c2csc(N(C(=O)N3CCN(c4cc5c(cc4F)c(=O)c(C(=O)O)cn5C4CC4)CC3)c3ccccc3)n2)cc1`, the GI50 is 0.372 µM in the experiment with UACC-257 melanoma; 0.357 µM with SNB-75 CNS; 0.46 µM in the experiment with DU-145 prostate; 0.371 µM in the experiment with KM12 colon; 0.303 µM in the experiment with SF-295 CNS; 0.394 µM in the experiment on M14 melanoma. Moreover, the GI50 in the experiment on NCI-H23 lung was 0.317 µM; in the experiment with HCC-2998 colon, 0.537 µM. Also, the TGI in the experiment on UACC-257 melanoma was over 100 µM; in the experiment on SNB-75 CNS, 4.17 µM; in the experiment on DU-145 prostate, over 100 µM; with KM12 colon, over 100 µM; with SF-295 CNS it was 1.86 µM; with M14 melanoma, over 100 µM. Further, the TGI in the experiment on NCI-H23 lung and in the experiment on HCC-2998 colon was over 100 µM each time.
In the case of `CC1(C)CC23C(=O)N(c4ccccc4)C(=Nc4ccccc4)NC2=CC(C#N)=C(C#N)C3O1` (configuration not stated), the TGI in the experiment with UACC-257 melanoma, in the experiment on SNB-75 CNS, in the experiment with KM12 colon, with MALME-3M melanoma, in the experiment on OVCAR-4 ovarian and with SF-295 CNS was over 100 µM in each case. For the same compound, the TGI with M14 melanoma, with NCI-H23 lung and in the experiment on HCC-2998 colon was over 100 µM throughout.
With `Cc1cc(C)c(C(=O)O)c(N)c1O`, the TGI in the experiment with UACC-257 melanoma, in the experiment with SNB-75 CNS, with KM12 colon, in the experiment on MALME-3M melanoma, in the experiment with OVCAR-4 ovarian and with SF-295 CNS was over 100 µM each time. For the same compound, the TGI with M14 melanoma, with NCI-H23 lung and in the experiment on HCC-2998 colon was over 100 µM throughout.
Turning to `CCCCCCCCN(CCCCCCCC)C(=N)c1ccnc2ccccc12`, the GI50 in the experiment with UACC-257 melanoma was 1.75 µM; in the experiment on SNB-75 CNS, 1.01 µM; in the experiment with DU-145 prostate, 1.08 µM; in the experiment on MALME-3M melanoma, 1.12 µM; in the experiment on OVCAR-4 ovarian it was 1.2 µM; with SF-295 CNS it was 1.52 µM. Moreover, the GI50 in the experiment with M14 melanoma is 0.336 µM; in the experiment with NCI-H23 lung it was 1.49 µM. Besides, the TGI in the experiment with UACC-257 melanoma is 3.35 µM; in the experiment with SNB-75 CNS, 2.36 µM; in the experiment with DU-145 prostate, 2.31 µM; in the experiment on MALME-3M melanoma it was 2.59 µM; with OVCAR-4 ovarian it was 2.6 µM; in the experiment with SF-295 CNS, 2.92 µM. The TGI in the experiment on M14 melanoma turned out to be 1.36 µM; in the experiment on NCI-H23 lung, 3.03 µM.
With `Cc1cc(N(CCC#N)CCC#N)ccc1/C=C1/CN(N2C(=O)/C(=C/c3ccc(N(CCC#N)CCC#N)cc3C)N=C2c2ccccc2)C(c2ccccc2)=N1`, the TGI was over 100 µM in the experiment with UACC-257 melanoma; 51.1 µM with SNB-75 CNS; over 100 µM in the experiment with KM12 colon; over 100 µM in the experiment on MALME-3M melanoma; over 100 µM with OVCAR-4 ovarian; over 100 µM in the experiment with SF-295 CNS. Further, the TGI in the experiment with M14 melanoma, in the experiment on NCI-H23 lung and in the experiment with HCC-2998 colon was over 100 µM throughout.
`O=c1c(O)c(-c2ccc(O)c(O)c2)oc2cc(O)ccc12`: the TGI was over 67.7 µM in the experiment on UACC-257 melanoma; 18.2 µM in the experiment with SNB-75 CNS; 31 µM in the experiment with KM12 colon; over 77 µM in the experiment on MALME-3M melanoma; over 100 µM in the experiment with OVCAR-4 ovarian; 54.4 µM with SF-295 CNS. The TGI with M14 melanoma was found to be 44 µM; with NCI-H23 lung, 31.8 µM; in the experiment with HCC-2998 colon, 41.9 µM.
`CC(C)(Cl)CCC1=C(Cl)C(=O)c2ccccc2C1=O`: the GI50 with UACC-257 melanoma was 1.67 µM; in the experiment with SNB-75 CNS it was 1.69 µM; in the experiment on DU-145 prostate it was 6.12 µM; with KM12 colon, 2.28 µM; in the experiment with OVCAR-4 ovarian, 1.55 µM; in the experiment on SF-295 CNS, 3.22 µM. Further, the GI50 in the experiment on M14 melanoma is 2.28 µM; in the experiment on NCI-H23 lung it was 2.82 µM. For the same compound, the TGI with UACC-257 melanoma was found to be 3.2 µM; in the experiment on SNB-75 CNS, 6.44 µM; in the experiment on DU-145 prostate, 18.2 µM; in the experiment on KM12 colon it was 5.32 µM; with OVCAR-4 ovarian it was 2.89 µM; in the experiment on SF-295 CNS, 11 µM. In addition, the TGI in the experiment with M14 melanoma was determined as 5.51 µM; in the experiment on NCI-H23 lung, 9.93 µM.
`CC(C)C1C(=O)N2CCCC2C2(O)OC(NC(=O)C3C=C4c5cccc6[nH]cc(c56)CC4N(C)C3)(C(C)C)C(=O)N12` (configuration not stated): the TGI in the experiment with UACC-257 melanoma is 76.2 µM; in the experiment with SNB-75 CNS, 76.7 µM; with DU-145 prostate, over 100 µM; in the experiment with KM12 colon it was 47.7 µM; with OVCAR-4 ovarian, 47.9 µM; with SF-295 CNS, 64.4 µM. In addition, the TGI was 75.5 µM in the experiment on M14 melanoma, over 100 µM with NCI-H23 lung and 42.9 µM in the experiment with HCC-2998 colon.
Turning to `Nn1c(CCCl)nc2c(Br)cc(Br)cc2c1=O`, the TGI in the experiment on UACC-257 melanoma was over 100 µM; in the experiment on SNB-75 CNS, 91.5 µM; with KM12 colon, 38.1 µM; with MALME-3M melanoma, over 100 µM; in the experiment on OVCAR-4 ovarian it was 69.3 µM; in the experiment with SF-295 CNS it was over 100 µM. Further, the TGI with M14 melanoma was over 70 µM; in the experiment on NCI-H23 lung, 62.8 µM; in the experiment with HCC-2998 colon, over 100 µM.
